Tests used:
[1] = system: reverse transcriptase (authentic sample) derived from Avian Myeloblastosis Virus; experiment: Inhibition of reverse transcriptase activity (AMV); format: biochemical; conditions: AMV enzyme; 1, 0.1 and 0.01 μg/ml
Procedure: Test substances were assayed for inhibition against the enzyme activity of reverse transcriptase (authentic sample) derived from Avian Myeloblastosis Virus (abbrev. AMV), a kind of retrovirus. Five microliters of […] (template RNA), 4 μl of (dT)12-18 (primer DNA), and 1 μl of water were mixed with 5 μl of 0.5M Tris-CHl (pH 8.4) including 0.1% triton X-100, 5 μl of […], 5 μl of 20 mM-DDT, 5 μl of water, and [^3 H]-TTP (tritium labeled thymidine triphosphate). To this mixture, test substances in solutions (final concentrations: 1, 0.1, and 0.01 μg/ml, 5 μl) or buffer solutions (control, 5 μl) at various doses were added. Then, 5 μl (one unit) of the authentic reverse transcriptase derived from AMV was added and the reaction mixture was incubated at 37° C. for 30 minutes. The reaction was stopped by addition of trichloroacetic acid, and after filtering the reaction mixture, the radioactivity of the polymerized (^3 H-T)n retained on the filter was measured using a liquid scintillation counter. As the test substances, sodium dextran sulfate (molecular weight: 5000), same (molecular weight: 8000), same (molecular weight: 500000), fucoidin, κ-carrageenan, λ-carrageenan, and .iota.-carrageenan were used.
The effects of the test substances on the reverse transcriptase activity of AMV were evaluated by the method described in Example 1.

[2] = system: HTLV-III; experiment: Anti-AIDS activity, infected cell rate of MT-4 cells infected with HTLV-III at 6th day; format: cell-based; conditions: for anti-AIDS virus activity: MT-4 cells, HTLV-III
Procedure: (§1) To MT-4 cells (30×10^4 /ml) cultured in RPMI-1640 medium containing 10% bovine serum, was inoculated HTLV-III, and the suspension was incubated at 37° C. for 1 hour to cause the adsorption of the virus. The cell:virus ratio was 500:1. The cells were then washed, and cultured with or without various doses of the test substances (same as those of Example 1) at 37° C. under 5% CO2 for 3 days, after which cell growth, viability, and percentage of infected cells were recorded. The infected cells were distinguished from the uninfected cells by indirect immuno-fluorescence method. Thus; the cultured cells were fixed with cold methanol on a slide glass, reacted with antibody to the HTLV-III-specific antigens, and further with the secondary antibody (having fluorescent label). The results are shown in FIGS. 9-29, wherein, , and show the controls without virus; , and show the infection experiments with HTLV-III. The cell growth is indicated in number of cells, the viability (%) in number of viable cells×100/number of total cells, and the infected cell rate (%) in number of fluorescent-positive cells×100/number of total cells.
In order to examine the correlation between the anti-AIDS virus activity and the molecular structure (especially, molecular weight and S-content or number of sulfate group in this case) of various test substances including those used in Examples 1-7, the anti-AIDS activities were evaluated for the various naturally occurring polysaccharides, polysaccharides having sulfate group, mucopolysaccharides, mucopolysaccharide sulfate, and mucopolysaccharide polysulfate. Further, similar experiments were carried out with various other sulfates which were synthetically obtained. The experimental procedures employed are identical to that in preceding experiments. The cultured MT-4 cells were infected with HTLV-III and the inhibitory effects of various test subsutances on the infected cell rate (number of fluorescent cell×100/ total cell, %) were determined at 6th day.

[3] = system: reverse transciptase of simian sarcoma virus; conditions: in vitro; Cancer Research, 38, 2401-2407; cited from earlier work
[4] = system: HTLV-III; experiment: Anti-AIDS virus activity, MT-4 cells infected with HTLV-III, 3 days; format: cell-based; conditions: increasing dose
Procedure: as §1
Test substances were assayed for the anti-AIDS virus activity in the same manner as in Example 3 using cell culture. The test substances are the same as those used in Example 5. […]
The anti-AIDS virus activity of heparin was evaluated in the same manner as in Example 3. […]

[5] = system: DNA polymerase of phytohemagglutinin stimulated human lymphocytes; conditions: in vitro; Cancer Research, 38, 2401-2407; cited from earlier work
[6] = Acute toxicity (LD50) in mice; format: in vivo
[7] = system: disrupted HTLV-III virions as a crude reverse transcriptase; experiment: Inhibition of reverse transcriptase activity (disrupted HTLV-III virions); format: biochemical; conditions: crude enzyme from HTLV-III virions
[8] = 10 μg/ml, 6th day, control 100%
[9] = 100 μg/ml, 6th day, control 100%

Chondroitin polysulfate
reverse transcriptase inhibition activity [1]: stronger activity than the natural substances
Infected cell (%) [2, 8]: 3%
Infected cell (%) [2, 9]: 1%
anti-AIDS virus activity ([2]; 6th day): particularly strong anti-AIDS virus activities

Heparin
inhibition of reverse transcriptase of simian sarcoma virus [3]: inhibit
cell growth and viability of MT-4 cells infected with HTLV-III [4]: the number of cells and viability were maintained to that of control
infected cell rate ([4]; indirect immunofluorescence): less susceptible to the viral infection
inhibition of DNA polymerase of phytohemagglutinin stimulated human lymphocytes [5]: inhibit
Infected cell (%) [2, 8]: 41%
Infected cell (%) [2, 9]: 1%
anti-AIDS virus activity ([2]; 6th day): particularly strong anti-AIDS virus activities
acute toxicity (LD50) ([6]; intravenously): 1,500-2,000 mg/kg

Sodium dextran sulfate [Sodium dextran sulfate (molecular weight: 7000-8000, S-conte]
Infected cell (%) ([2]; 10 μg/ml, 6th day; control 100%; S-content 17-20), 8640 min): 1%
Infected cell (%) [2, 9]: 0%
reverse transcriptase inhibitory effect [7]: has an inhibitory effect
acute toxicity (LD50) ([6]; intravenously): 4,500 mg/kg
acute toxicity (LD50) ([6]; orally): 21,000 mg/kg

keratan polysulfate
reverse transcriptase inhibition activity [1]: stronger activity than the natural substances

sodium chondroitin sulfate
acute toxicity (LD50) ([6]; intraperitoneally): ≥ 4,000 mg/kg
acute toxicity (LD50) ([6]; orally): ≥ 7,500 mg/kg

From patent US4840941A, “Method for inhibiting infection of human T-cells” (Kabushiki Kaisha Ueno Seiyaku Oyo Kenkyujo, priority 1986, dated 1989)
